Data: ChEMBL document CHEMBL1145717, “Nostopeptins A and B, Elastase Inhibitors from the Cyanobacterium Nostoc minutum” (J Nat Prod, 1997)
≈ marks a conversion by molar mass, not a printed value. Calls of active or inactive are those of the source. The rule behind the calls is not given here.

Assays:
[1] = target: Plasminogen (Homo sapiens) (UniProt P00747); assay: Inhibition of plasmin at 100 ug/ml
[2] = target: Prothrombin (Homo sapiens) (UniProt P00734); assay: Inhibition of thrombin at 100 ug/ml
[3] = Inhibition of elastase
[4] = Inhibition of chymotrypsin
[5] = Inhibition of trypsin at 100 ug/ml
Papain (Carica papaya) = target: T1, Papain (Carica papaya) (UniProt P00784); assay: Inhibition of papaya papain at 100 ug/ml
T1 sequence (whole entry): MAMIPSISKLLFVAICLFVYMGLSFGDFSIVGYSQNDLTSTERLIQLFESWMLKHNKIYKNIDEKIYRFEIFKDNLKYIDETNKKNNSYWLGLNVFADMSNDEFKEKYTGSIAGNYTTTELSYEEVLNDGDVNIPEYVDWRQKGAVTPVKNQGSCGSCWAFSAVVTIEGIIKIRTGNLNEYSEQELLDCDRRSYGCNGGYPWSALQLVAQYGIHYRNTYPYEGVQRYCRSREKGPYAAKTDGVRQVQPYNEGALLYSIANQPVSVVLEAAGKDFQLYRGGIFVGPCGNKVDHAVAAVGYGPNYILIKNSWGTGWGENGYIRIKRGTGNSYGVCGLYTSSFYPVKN

Plasminogen (Homo sapiens), sequence (P00747 97-580 limits assumed): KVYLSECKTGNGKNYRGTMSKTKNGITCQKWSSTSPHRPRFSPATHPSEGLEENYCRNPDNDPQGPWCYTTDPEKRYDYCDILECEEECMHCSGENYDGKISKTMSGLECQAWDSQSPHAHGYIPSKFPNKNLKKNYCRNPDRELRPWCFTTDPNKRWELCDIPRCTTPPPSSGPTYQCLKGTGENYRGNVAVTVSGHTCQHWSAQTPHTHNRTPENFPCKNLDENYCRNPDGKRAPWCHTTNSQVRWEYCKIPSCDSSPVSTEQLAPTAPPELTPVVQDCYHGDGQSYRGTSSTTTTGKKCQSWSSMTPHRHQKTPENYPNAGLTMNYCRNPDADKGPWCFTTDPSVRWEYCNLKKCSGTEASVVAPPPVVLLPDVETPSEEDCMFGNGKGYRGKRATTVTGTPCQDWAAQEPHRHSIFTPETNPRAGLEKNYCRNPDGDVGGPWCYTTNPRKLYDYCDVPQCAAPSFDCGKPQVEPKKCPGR
Plasminogen (Homo sapiens), sequence (P00747 581-810 limits assumed): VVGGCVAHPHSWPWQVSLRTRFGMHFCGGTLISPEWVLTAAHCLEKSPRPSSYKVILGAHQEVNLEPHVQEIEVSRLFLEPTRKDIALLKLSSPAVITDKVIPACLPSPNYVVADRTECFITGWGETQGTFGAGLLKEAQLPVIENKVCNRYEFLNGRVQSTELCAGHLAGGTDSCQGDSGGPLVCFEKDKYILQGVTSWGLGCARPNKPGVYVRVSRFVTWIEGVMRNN

## CC[C@H](C)[C@@H]1NC(=O)[C@H](Cc2ccc(O)cc2)N(C)C(=O)[C@H]([C@@H](C)CC)N2C(=O)C(CCC2O)NC(=O)[C@H](CC(C)C)NC(=O)[C@@H]2C(OC1=O)C(C)CN2C(=O)[C@H](CCC(N)=O)NC(C)=O (some centres not stated) [NOSTOPEPTIN B]
[1]
  Activity: inactive
[2]
  Activity: inactive
[3]
  IC50: 11 µg/mL (≈ 11.9 µM)
[4]
  IC50: 1.6 µg/mL (≈ 1.73 µM)
[5]
  Activity: inactive
Papain (Carica papaya)
  Activity: inactive

## CCCC(=O)N[C@@H](CCC(N)=O)C(=O)N1CC(C)C2OC(=O)[C@H]([C@@H](C)CC)NC(=O)[C@H](Cc3ccc(O)cc3)N(C)C(=O)[C@H]([C@@H](C)CC)N3C(=O)C(CCC3O)NC(=O)[C@H](CC(C)C)NC(=O)[C@H]21 (some centres not stated) [NOSTOPEPTIN A]
[1]
  Activity: inactive
[2]
  Activity: inactive
[3]
  IC50: 1.3 µg/mL (≈ 1.36 µM)
[4]
  IC50: 1.4 µg/mL (≈ 1.47 µM)
[5]
  Activity: inactive
Papain (Carica papaya)
  Activity: inactive
